Publication PMC10052652 (Molecules, 2023)
Like-named read-outs stand apart in the source and are kept apart here.

Columns and labels:
[1] = DPPH radical scavenging assay; conditions: for DPPH Assay %: at 100 µM
Protocol: DPPH• (1-1-diphenyl 2-picryl hydrazyl) assay
This method is based on the spectrophotometric assay using the stable radical, DPPH•, as a reagent. First, 20 µL of each sample (4 mg/mL) was mixed with 180 µL of 0.1 mM DPPH• in methanol, in plates, after an incubation of 25 min in the dark. Absorbance was measured at 517 nm. Ascorbic acid was used as the reference compound. The radical-scavenging activities of molecules, expressed as a percentage inhibition of DPPH•, were calculated according to the following formula: Inhibition (%) = [(A control − A sample)/A control] × 100 where A is the absorbance determined at 517 nm. The absorbance of the solvent and DPPH• radical without the molecule was measured as the control.

[2] = target: acetylcholinesterase (AChE) (Homo sapiens, UniProt P22303); test: biochemical
Protocol: The enzymatic activity was assessed via a modified colorimetric Ellman′s method. First, 50 µL of Tris-HCl buffer (pH 8), 25µL of a buffer solution of the sample (50 µg/mL), and 25 µL of an acetylcholinesterase (AChE) enzyme solution containing 2.8 U/mL were mixed. A reaction was then initiated via the addition of 125 µL of 3 mM […]. After incubation for 15 min at 25 °C, 25 µL of a solution of iodide acetylthiocholine15 mM was added to a 96-well microplate. […] Inhibition (%) was calculated in the following way: Inhibition (%) = [(A control − A sample)/A control] × 100, where (A sample) is the absorbance of the molecule containing the reaction and (A control) is the absorbance of the reaction control. Tests were carried out in triplicate.

xanthine oxidase (XOD) = xanthine oxidase (XOD) (Homo sapiens, UniProt P47989); test: biochemical
Protocol: Anti-xanthine oxidase activity was assayed spectrophotometrically under aerobic conditions. First, 50 µL (50 µg/mL) of samples were added to 60 µL of phosphate buffer (pH 7.5) and 30 µL of xanthine oxidase enzyme solution (0.01 units/mL in phosphate buffer; pH 7.5). After pre-incubation at 25 °C for 15 min, the reaction was initiated by the addition of 60 µL of xanthine substrate solution (prepared in the same buffer). The assay mixture was incubated at 25 °C for 5 min. […] The assay was performed in triplicate. […] Tests were carried out in triplicate.

HCT116 cells = test: Cytotoxic activity, MTT assay, HCT116; assay type: cell-based, human
Protocol: (§1) The cancer cell lines used in this study were HCT116 (colorectal carcinoma), IGROV1 (ovarian cancer), OVCAR3 (ovarian cancer), and MCF7 (mammary gland/breast cancer). […] Cell lines were maintained in culture and were incubated at 37 °C in an incubator with 5% CO2 in a humidified atmosphere. All tests were established at 80% of confluence, and viability was estimated with a trypan blue exclusion assay.
(§2) The cytotoxic activities of molecules against cancer cell lines were evaluated using an MTT assay. The MTT colorimetric assay was performed using 96-well plates. Cells were seeded in a 96-well plate, at a concentration of 10 × 10^3 cells/well for HCT116 and 12 × 10^3 cells/well for MCF7, IGROV1, and OVAR. Adherent cells were dispatched and incubated at 37 °C overnight in a 5% CO2-enriched atmosphere. […] After that, the medium was removed, and cells were treated with 50 µL of 3-(4,5-dimethylthazolk-2-yl)-2,5-diphenyl tetrazolium bromide (MTT) solution (3 mg/mL in PBS) at 37 °C for 20 to 40 min. To dissolve the […], we added 80 µL of 100% DMSO. Optical density was measured at 540 nm. All tests were established in triplicate. […]

MCF7 cells = test: Cytotoxic activity, MTT assay, MCF7; assay type: cell-based, human
Protocol: Optical density was measured at 540 nm. All tests were established in triplicate.

OVCAR-3 cells = test: Cytotoxic activity, MTT assay, OVCAR-3; assay type: cell-based; conditions: Homo sapiens, OVCAR-3, 72 h, read-out: IC50 OVCAR-3
Protocol: as §1, §2

SKOV-3 cells = test: Cytotoxic activity, MTT assay, SKOV-3; assay type: cell-based, human
IGROV-1 cells = test: Cytotoxic activity, MTT assay, IGROV-1; conditions: for Cytotoxic activity against IGROV-1 (in words): at 100 µM; for IC50: Homo sapiens, IGROV-1, read-out: IC50 IGROV-1
Protocol: as §1
The cytotoxic activities of molecules against cancer cell lines were evaluated using an MTT assay. The MTT colorimetric assay was performed using 96-well plates. Cells were seeded in a 96-well plate, at a concentration of 10 × 10^3 cells/well for HCT116 and 12 × 10^3 cells/well for MCF7, IGROV1, and OVAR. Adherent cells were dispatched and incubated at 37 °C overnight in a 5% CO2-enriched atmosphere. Cells in the exponential growth phase were incubated at 37 °C for 72 h, with each tested sample at 50 µg/mL. After that, the medium was removed, and cells were treated with 50 µL of 3-(4,5-dimethylthazolk-2-yl)-2,5-diphenyl tetrazolium bromide (MTT) solution (3 mg/mL in PBS) at 37 °C for 20 to 40 min. To dissolve the […], we added 80 µL of 100% DMSO. Optical density was measured at 540 nm. All tests were established in triplicate. The anti-cancer effect of samples was estimated in terms of growth inhibition percentage.

α-amylase = target: T1, α-amylase (Homo sapiens, UniProt P04746); test: Anti-α-amylase activity (starch/DNS); conditions: for Anti α-Amylase %: at 100 µM
T1 sequence (P04746 16-511): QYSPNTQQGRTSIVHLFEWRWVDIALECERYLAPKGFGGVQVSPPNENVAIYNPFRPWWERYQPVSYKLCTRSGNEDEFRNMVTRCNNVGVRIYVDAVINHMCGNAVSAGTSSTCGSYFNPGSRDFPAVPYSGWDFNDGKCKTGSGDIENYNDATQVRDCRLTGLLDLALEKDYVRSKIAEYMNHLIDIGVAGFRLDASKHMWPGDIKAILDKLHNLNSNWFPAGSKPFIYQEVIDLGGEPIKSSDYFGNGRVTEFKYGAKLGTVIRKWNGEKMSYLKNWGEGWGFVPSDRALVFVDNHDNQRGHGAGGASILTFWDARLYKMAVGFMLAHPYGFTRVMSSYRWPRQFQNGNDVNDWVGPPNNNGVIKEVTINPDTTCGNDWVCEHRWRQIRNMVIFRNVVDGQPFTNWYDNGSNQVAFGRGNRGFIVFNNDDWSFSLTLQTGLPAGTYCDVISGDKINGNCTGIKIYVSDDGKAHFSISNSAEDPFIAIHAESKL
Protocol: The α-amylase inhibitory activity (%) value was defined as the percentage decrease in the maltose production rate over the control. […] After 15 min, this mixture was removed from the water bath and diluted with 900 µL of distilled water. The anti-α-amylase activity was determined by measuring the absorbance at 540 nm. Blank incubations were determined as the absorbance produced by samples where the enzyme was replaced with a buffer solution. […] The IC50 values were calculated from the mean values of the percentage of α--amylase inhibition data, determined in triplicate.

[3] = Homo sapiens, HCT-116, 72 h, read-out: IC50 HCT116, MTT, 72 h
[4] = read-out: IC50 HCT116, MTT, 72 h
[5] = Homo sapiens, SK-OV-3, 72 h, read-out: IC50 SKOV-3, MTT, 72 h

Sequence of xanthine oxidase (XOD) (P47989 whole entry, species assumed): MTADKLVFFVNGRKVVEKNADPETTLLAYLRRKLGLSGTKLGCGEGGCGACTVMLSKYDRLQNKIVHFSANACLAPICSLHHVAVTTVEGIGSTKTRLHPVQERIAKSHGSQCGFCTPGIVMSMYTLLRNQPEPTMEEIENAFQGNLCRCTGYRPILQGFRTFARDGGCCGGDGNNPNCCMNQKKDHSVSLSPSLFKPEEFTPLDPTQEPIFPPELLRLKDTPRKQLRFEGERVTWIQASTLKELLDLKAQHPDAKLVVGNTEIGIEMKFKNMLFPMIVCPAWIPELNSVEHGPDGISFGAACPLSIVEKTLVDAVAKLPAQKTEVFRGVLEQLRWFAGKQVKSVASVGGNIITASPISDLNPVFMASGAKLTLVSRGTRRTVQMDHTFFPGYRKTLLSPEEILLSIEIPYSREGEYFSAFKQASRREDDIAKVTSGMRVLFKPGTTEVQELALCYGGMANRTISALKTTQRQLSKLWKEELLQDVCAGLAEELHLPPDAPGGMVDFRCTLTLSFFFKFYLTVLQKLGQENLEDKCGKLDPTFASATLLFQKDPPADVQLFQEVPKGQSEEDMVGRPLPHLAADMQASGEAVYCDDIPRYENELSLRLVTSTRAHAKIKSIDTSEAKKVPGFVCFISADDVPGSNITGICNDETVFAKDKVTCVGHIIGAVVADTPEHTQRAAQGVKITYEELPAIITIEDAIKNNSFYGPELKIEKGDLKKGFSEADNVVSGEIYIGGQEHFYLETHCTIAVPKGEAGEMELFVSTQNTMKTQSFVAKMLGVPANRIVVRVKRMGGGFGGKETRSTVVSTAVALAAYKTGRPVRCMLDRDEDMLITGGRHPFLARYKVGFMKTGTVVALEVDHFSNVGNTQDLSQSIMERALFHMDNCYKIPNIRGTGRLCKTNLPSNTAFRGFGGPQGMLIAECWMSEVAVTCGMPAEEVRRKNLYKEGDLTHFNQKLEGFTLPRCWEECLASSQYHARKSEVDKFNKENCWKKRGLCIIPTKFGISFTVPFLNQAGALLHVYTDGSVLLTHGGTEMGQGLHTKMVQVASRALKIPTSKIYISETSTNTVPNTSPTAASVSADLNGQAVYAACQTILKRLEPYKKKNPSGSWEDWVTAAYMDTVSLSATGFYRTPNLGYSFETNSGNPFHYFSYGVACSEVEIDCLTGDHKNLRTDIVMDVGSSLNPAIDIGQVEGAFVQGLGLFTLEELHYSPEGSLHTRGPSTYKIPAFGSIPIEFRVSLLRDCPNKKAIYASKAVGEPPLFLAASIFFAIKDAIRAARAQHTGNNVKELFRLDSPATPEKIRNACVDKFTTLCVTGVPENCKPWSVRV
Sequence of acetylcholinesterase (AChE) (P22303 32-614, species assumed): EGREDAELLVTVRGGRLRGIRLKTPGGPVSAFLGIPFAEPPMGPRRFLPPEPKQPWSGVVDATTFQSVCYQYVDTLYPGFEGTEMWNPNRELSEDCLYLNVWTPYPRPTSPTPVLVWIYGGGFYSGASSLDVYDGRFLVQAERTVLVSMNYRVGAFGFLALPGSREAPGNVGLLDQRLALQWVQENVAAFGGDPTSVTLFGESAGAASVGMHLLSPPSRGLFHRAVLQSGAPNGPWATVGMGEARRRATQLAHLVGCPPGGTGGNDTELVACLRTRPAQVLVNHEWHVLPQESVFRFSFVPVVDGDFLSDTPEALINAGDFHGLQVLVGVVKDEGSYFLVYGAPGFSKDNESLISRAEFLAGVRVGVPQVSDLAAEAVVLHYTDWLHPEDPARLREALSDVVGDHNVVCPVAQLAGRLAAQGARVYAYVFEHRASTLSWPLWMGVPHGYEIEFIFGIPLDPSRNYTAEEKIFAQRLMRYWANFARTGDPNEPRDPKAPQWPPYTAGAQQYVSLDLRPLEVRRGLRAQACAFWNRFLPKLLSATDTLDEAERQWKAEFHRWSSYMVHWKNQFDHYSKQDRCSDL

| SMILES | IC50 [1] [µM] | DPPH Assay % [1] | IC50 [2] [µM] | IC50 (xanthine oxidase (XOD)) [µM] | IC50 (HCT116 cells; [3]) [µM] | IC50 (HCT116 cells; [4]) [µM] | IC50 (MCF7 cells; Homo sapiens, MCF7, 72 h) [µM] | IC50 (OVCAR-3 cells) [µM] | IC50 (SKOV-3 cells; [5]) [µM] | Cytotoxic activity against IGROV-1 (in words) (IGROV-1 cells) | IC50 (α-amylase) [µM] | Anti α-Amylase % (α-amylase) [%] | IC50 (xanthine oxidase (XOD); read-out: Anti XOD IC50) [µM] | IC50 (IGROV-1 cells) [µM] | IC50 ([2]; read-out: Anti ACHE IC50) [µM] | IC50 (SKOV-3 cells; read-out: IC50 SKOV-3, MTT, 72 h) [µM] | IC50 (MCF7 cells; 72 h) [µM] |
| --- | --- | --- | --- | --- | --- | --- | --- | --- | --- | --- | --- | --- | --- | --- | --- | --- | --- |
| O=c1cc(-c2ccccc2)oc2cc(O)cc(O)c12 [Molecule M1, 5,7-dihydroxyflavone] | > 100 | not active | > 100 | > 100 | > 100 | > 50 | 35.9 ± 0.8 | > 50 | > 50 | most active | 36.6 ± 0.2 | 59.7 ± 2.0 |  |  |  |  |  |
| COc1ccc(-c2oc3c(CC=C(C)C)c(O[C@@H]4O[C@H](CO)[C@@H](O)[C@H](O)[C@H]4O)cc(O)c3c(=O)c2O[C@@H]2O[C@@H](C)[C@H](O)[C@@H](O)[C@H]2O)cc1 [Molecule M2, Icariin] | > 100 |  | > 100 |  | > 50 |  | > 100 | > 50 | > 50 | not active | 14.1 ± 2.1 | 58.1 ± 2.2 | > 100 | > 100 |  |  |  |
| O=c1cc(-c2ccccc2)oc2ccc(O)cc12 [Molecule M3, 6-hydroxyflavone] | > 100 |  |  |  | > 100 | > 50 | > 50 | 44.7 ± 1.2 | > 100 | most active | 10.9 ± 0.1 | 90.3 ± 3.2 | > 100 |  | > 100 | > 50 |  |
| O=c1cc(-c2ccccc2)oc2cccc(O)c12 [Molecule M4, 5-hydroxyflavone] | > 100 |  | > 100 | > 100 | > 100 | > 50 | > 50 | > 50 | > 50 |  | 37.9 ± 0.8 | 58.4 ± 1.4 |  |  |  |  | > 100 |
| O=c1cc(-c2ccccc2)oc2cc(O)ccc12 [Molecule M5, 7-hydroxyflavone] | > 100 |  | > 100 |  | > 100 | > 50 | > 50 | > 50 | > 50 | most active | 1.2 ± 0.1 | 90.3 ± 3.2 | > 100 |  |  |  |  |
| O=c1cc(-c2ccccc2)oc2cc(O)c(O)c(O)c12 [Molecule M7, 5,6,7-trihydroxyflavone] | 5.2 ± 0.2 | 96.4 ± 0.1% | 10.2 ± 3 |  | 38.5 ± 1.3 |  | 33.1 ± 1.4 | > 50 | 15.6 ± 0.1 |  | 3.4 ± 0.1 | 96.9 ± 1.7 | > 100 |  |  |  |  |
| O=c1cc(-c2cc(O)cc(O)c2)oc2ccccc12 [Molecule M8, 3′,5′-dihydroxyflavone] | > 100 | 20.3 ± 4.1% |  |  | 33.1 ± 0.1 |  | 40.4 ± 0.7 | > 50 | > 50 | most active | 14.9 ± 0.3 | 104.8 ± 3.5 | 2.3 ± 0.1 |  | > 100 |  |  |
| O=c1cc(-c2cccc(O)c2)oc2ccc3ccccc3c12 [Molecule M9, 3′-hydroxy-b-naphthoflavone] | > 100 |  |  |  | > 50 |  | > 50 | > 50 | > 50 | not active | 2 ± 0.2 | 86.6 ± 2.3 | > 100 | > 100 | > 100 |  |  |
| O=c1cc(-c2cccc(O)c2)oc2cc(O)ccc12 [Molecule M13, 7,3′-dihydroxyflavone] | > 100 |  |  |  | 39.3 ± 0.8 |  | 38.5 ± 1.2 | > 50 | 42.1 ± 0.7 | most active | 1.4 ± 0.1 | 91.7 ± 4.9 | 0.9 ± 0.2 |  | > 50 |  |  |
| COc1cc(-c2cc(=O)c3ccc4c(O)cccc4c3o2)cc(OC)c1OC [Molecule M18, 7-hydroxy-3′,4′,5′-trimethoxy-α-naphthoflavone] | > 100 | 40.8 ± 0.6% |  |  | 45 ± 0.9 |  | > 50 | > 50 | 37.3 ± 1 | not active | > 100 |  | > 100 | > 100 | > 100 |  |  |
